This note sets out measurements from patent US6355677B1, “Adrenoleukodystrophy treatments and drug screening” (The Johns Hopkins University, priority 1998, dated 2002).

“Also recorded” adds a separate entry of the source.

The test system of experiment [1] is PPARα. As to the kind of experiment: Semi-quantitative RT-PCR, human primary fibroblasts. Format: cell-based. As to conditions: human X-ALD fibroblasts, 5 mM, up to 10 days. As to the method:
(§1) Total RNA from tissue culture cells (10^6-10^7 cells/sample) was isolated using TRizol Reagent™ (Life Technologies), treated with DNase I (100-200 units in 40 mM HC, 10mM NaC, 6 mM MgCl2, pH 7.3), incubated at 37° C. for 30 min, extracted with pheno/chloroform, and precipitated with isopropanol. cDNA was generated using MMLV reverse transcriptase (RT) (Life Technologies). PCR was done in the linear range of amplification (determined for each primerpair-cDNA combination). For each cDNA sample, a ‘cocktail’ was prepared, containing PCR buffer (Promega), 200 µM of each DNTP, 1.5 mM MgCl2, 250 ng cDNA, 0.25 U of Taq polymerase (Promega) and […]. The ‘cocktail’ was divided into separate tubes containing cDNA specific primers.
(§2) The PCR primers used are listed below. In the parentheses, h indicates human and m, mouse; this is followed by the gene name, product size and annealing temperature. For primer sequences, F is forward and R is reverse. […]

Experiment [2] deals with Pex11α. Described as above. It is filed as cell-based. As to conditions: 5 mM, 2 days. As to the method:
as §1, §2

As to `O=C(O)CCCc1ccccc1` [4-PBA, 4-Phenyl butyrate], the PPARα expression result in experiment [1] is recorded as “unchanged”. For the same molecule, in experiment [2], the Pex11α expression result is on record as “substantially increased; also recorded: substantial increase”.
